Source: US20090054471A1, “PYRIDOPYRAZOLOPYRIMIDINE COMPOUNDS AND THEIR USES AS ANTI-CANCER AND ANTI-DIABETE DRUGS” (Smithkline Beecham Corporation, priority 2005, published 2009)

Experiments:
Format in all cases: biochemical
ErbB-2 = molecular target: T1, ErbB-2 (Homo sapiens, UniProt P04626); assay: ErbB-2 protein tyrosine kinase substrate phosphorylation assay (SPA); settings: 10 μM ATP, 11-point dose-response 0.0001 to 10 μM; read-out: ErbB2
T1 construct: made in house; host or cells: baculovirus expression system (insect cells)
T1 sequence (P04626 676-1255 limits assumed): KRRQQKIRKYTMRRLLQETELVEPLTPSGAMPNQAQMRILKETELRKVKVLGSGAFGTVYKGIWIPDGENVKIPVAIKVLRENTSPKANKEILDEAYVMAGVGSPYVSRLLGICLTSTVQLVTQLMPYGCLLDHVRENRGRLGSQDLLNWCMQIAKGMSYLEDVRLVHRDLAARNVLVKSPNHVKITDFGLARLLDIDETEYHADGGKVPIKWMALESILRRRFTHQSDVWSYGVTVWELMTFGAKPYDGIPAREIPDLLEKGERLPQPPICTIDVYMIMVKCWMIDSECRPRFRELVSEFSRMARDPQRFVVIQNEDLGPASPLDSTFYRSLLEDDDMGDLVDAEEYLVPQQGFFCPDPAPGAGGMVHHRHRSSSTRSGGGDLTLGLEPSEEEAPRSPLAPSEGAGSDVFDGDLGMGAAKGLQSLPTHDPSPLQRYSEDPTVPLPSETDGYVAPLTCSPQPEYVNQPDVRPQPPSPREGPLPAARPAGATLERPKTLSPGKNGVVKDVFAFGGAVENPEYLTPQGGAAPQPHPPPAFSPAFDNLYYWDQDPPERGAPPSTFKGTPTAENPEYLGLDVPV
Method: (§1) Compounds of the present invention were tested for EGFR or ErbB-2 protein tyrosine kinase inhibitory activity in substrate phosphorylation assays using enzymes purified from a baculovirus expression system.
(§2) The method measures the ability of the isolated enzyme to catalyse the transfer of the γ-phosphate from ATP onto tyrosine residues in a biotinylated synthetic peptide (biotin-Ahx-[…]-amide). Reactions were performed in 96 or 384 well polystyrene plates in a final volume of 20 or 45 μl. […] ATP per reaction, 2 μM peptide substrate, and 1 mM dithiothreitol. Reactions were initiated by adding 1 pmol (20 nM) per reaction of the indicated enzyme.
(§3) Data Calculations—Peptide substrate phosphorylation reactions were performed as described above. The example compound indicated was serially diluted 1 to 3 and added to the reactions to produce an 11-point dose-response curve ranging from 0.0001 to 10 μM.

EGFR = molecular target: T2, EGFR (Homo sapiens, UniProt P00533); assay: EGFR protein tyrosine kinase substrate phosphorylation assay (SPA); settings: 10 μM ATP, 11-point dose-response 0.0001 to 10 μM
T2 construct: made in house; host or cells: baculovirus expression system (insect cells)
T2 sequence (P00533 669-1210 limits assumed): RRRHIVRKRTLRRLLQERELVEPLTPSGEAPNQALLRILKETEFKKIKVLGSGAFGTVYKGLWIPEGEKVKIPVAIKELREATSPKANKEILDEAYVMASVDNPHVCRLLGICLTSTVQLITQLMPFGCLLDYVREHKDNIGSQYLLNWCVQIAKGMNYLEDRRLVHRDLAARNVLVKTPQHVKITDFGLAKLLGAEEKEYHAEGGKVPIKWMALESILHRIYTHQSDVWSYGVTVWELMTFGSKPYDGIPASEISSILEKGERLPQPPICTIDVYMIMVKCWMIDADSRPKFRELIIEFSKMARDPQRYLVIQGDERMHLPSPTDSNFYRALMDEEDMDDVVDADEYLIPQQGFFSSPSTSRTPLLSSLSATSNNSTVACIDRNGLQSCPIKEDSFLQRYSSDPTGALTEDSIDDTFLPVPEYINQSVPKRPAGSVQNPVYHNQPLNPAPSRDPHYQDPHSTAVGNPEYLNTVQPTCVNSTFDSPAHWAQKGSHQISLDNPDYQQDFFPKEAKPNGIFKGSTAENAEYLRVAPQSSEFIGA
Method: as §1, §2, §3

Human GSK3b = molecular target: T3, Human GSK3b (Homo sapiens, UniProt P49841); assay: GSK3b kinase scintillation proximity assay; settings: 2.5 uM ATP, 11-point dose-response 0.0001 to 10 μM; read-out: GSK3
T3 construct: 6-His (N); made in house; host or cells: E. coli
T3 sequence (P49841 whole entry): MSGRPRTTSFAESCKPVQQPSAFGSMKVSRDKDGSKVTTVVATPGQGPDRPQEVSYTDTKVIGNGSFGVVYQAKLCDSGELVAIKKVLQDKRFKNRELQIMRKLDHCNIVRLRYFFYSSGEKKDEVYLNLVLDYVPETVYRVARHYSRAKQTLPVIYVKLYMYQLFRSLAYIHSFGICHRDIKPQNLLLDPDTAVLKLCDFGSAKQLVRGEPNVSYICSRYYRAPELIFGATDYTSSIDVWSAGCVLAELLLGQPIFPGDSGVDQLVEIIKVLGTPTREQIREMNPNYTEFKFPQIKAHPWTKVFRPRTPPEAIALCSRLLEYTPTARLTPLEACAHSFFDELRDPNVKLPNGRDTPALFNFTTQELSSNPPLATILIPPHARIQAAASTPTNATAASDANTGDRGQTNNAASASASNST
Method: Human GSK3b was expressed in E. coli with a 6-His tag at the N-terminus. The protein was purified using metal-chelate affinity chromatography. The incorporation of radioactive phosphate into a biotinylated synthetic peptide, Biotin-Ahx-[…](PO3)YR-amide was detected using a scintillation proximity assay (SPA) method as described above. Assay conditions were as follows: 100 mM HEPES, pH 7.2, 10 mM MgCl2, 0.3 mg/mL heparin sulfate, 0.1 mg/mL BSA, 1 mM DTT, 2.5 uM ATP, 0.6 uCi/rxn ^33P-ATP, 1.2 ug/mL GSK-3b protein. The plates are incubated at room temperature for 19 minutes prior to the addition of SPA stop solution.
as §3

[1] = molecular target: T4, vascular endothelial growth factor receptor 2 (VEGFR2) (Homo sapiens, UniProt P35968); assay: VEGFR2 kinase assay (homogeneous time-resolved fluorescence); settings: 75 μM ATP, 11-point dose-response 0.0001 to 10 μM; read-out: VEGF-R
T4 construct: The catalytic domains of vascular endothelial growth factor receptor 2 (VEGFR2) was expressed and purified; made in house
T4 sequence (P35968 834-1162 limits assumed): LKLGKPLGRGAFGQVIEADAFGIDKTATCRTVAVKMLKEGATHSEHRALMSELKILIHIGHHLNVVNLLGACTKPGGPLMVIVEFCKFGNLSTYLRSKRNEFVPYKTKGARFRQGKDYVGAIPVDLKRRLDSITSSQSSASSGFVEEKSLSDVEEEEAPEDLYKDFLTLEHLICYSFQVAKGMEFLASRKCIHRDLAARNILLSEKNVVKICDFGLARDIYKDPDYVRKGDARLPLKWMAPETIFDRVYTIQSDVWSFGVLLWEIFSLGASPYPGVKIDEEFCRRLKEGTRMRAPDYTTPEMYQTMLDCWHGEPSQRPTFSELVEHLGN
Method: The catalytic domains of vascular endothelial growth factor receptor 2 (VEGFR2) was expressed and purified using methods similar to those described for ErbB-2 and EGFR. Kinase assays were performed as described above with the following modifications: VEGFR2 assays contained 10 nM enzyme, 100 mM HEPES, pH 7.5, 0.1 mg/ml bovine serum albumin, 0.1 mM dithiothreitol, 360 nM peptide A, 75 μM ATP, and 5 mM MgCl2. The reaction was allowed to proceed for 40 min. Product was detected using a homogeneous time-resolved fluorescence procedure (Park, Y.-W., Cummings, R. T., Wu, L., Zheng, S., Cameron, P. M., Woods, A., Zaller, D. M., Marcy, A. I., and Hermes, J. D. (1999) Anal. Biochem. 269, 94-104). Briefly, the reactions were quenched by adding 100 μl of 100 mM HEPES, pH 7.5, 100 mM EDTA, 45 nM streptavidin-linked allophycocyanin (Molecular Probes, Eugene, Oreg.), and 3 nM europium-conjugated anti-phosphotyrosine antibody (Wallac, Turku, Finland). The product was detected using a Victor plate reader (Wallac, Turku, Finland) with a time delay at 665 nm.
as §3

Compound	IC50 (ErbB-2) [µM]	IC50 (EGFR) [µM]	IC50 (Human GSK3b) [µM]	IC50 [1] [µM]
Nc1ncnc2nn3ccccc3c12 [Example 1, pyrido[1′,2′:1,5]pyrazolo[3,4-d]pyrimidin-4-amine]	> 10	> 10	> 10	> 10
Fc1ccc(Nc2ncnc3nn4ccccc4c23)cc1Cl [Example 4, N-(3-chloro-4-fluorophenyl)pyrido[1′,2′:1,5]pyrazolo[3,4-d]pyrimidin-4-amine]			> 10	> 10
Fc1cccc(COc2ccc(Nc3ncnc4nn5ccccc5c34)cc2Cl)c1 [Example 5, N-(3-chloro-4-{[(3-fluorophenyl)methyl]oxy}phenyl)-pyrido[1′,2′:1,5]pyrazolo[3,4-d]pyrimidin-4-amine]			> 10	> 10
Clc1cc(Nc2ncnc3nn4ccccc4c23)ccc1OCc1ccccc1 [Example 6, N-{3-chloro-4-[(phenylmethyl)oxy]phenyl}pyrido[1′,2′:1,5]pyrazolo[3,4-d]pyrimidin-4-amine]	0.1 to 1	< 0.1	> 10	> 10
c1ccc(Cc2nc3ccc(Nc4ncnc5nn6ccccc6c45)cc3[nH]2)cc1 [Example 7, N-[2-(phenylmethyl)-1H-benzimidazol-5-yl]pyrido[1′,2′:1,5]pyrazolo-[3,4-d]pyrimidin-4-amine]	1 to 10	1 to 10	> 10	> 10
N#Cc1cccc(NC(=O)Nc2ncnc3nn4ccccc4c23)c1 [Example 8, N-(3-cyanophenyl)-N′-pyrido[1′,2′:1,5]pyrazolo[3,4-d]pyrimidin-4-ylurea]	> 10	> 10	0.1 to 1	0.1 to 1
O=C(Nc1cccc(C(F)(F)F)c1)Nc1ncnc2nn3ccccc3c12 [Example 9, N-pyrido[1′,2′:1,5]pyrazolo[3,4-d]pyrimidin-4-yl-N′-[3-(trifluoromethyl)phenyl]urea]	> 10	> 10	0.1 to 1	0.1 to 1
O=C(Nc1cccc([N+](=O)[O-])c1)Nc1ncnc2nn3ccccc3c12 [Example 10, N-(3-nitrophenyl)-N′-pyrido[1′,2′:1,5]pyrazolo[3,4-d]pyrimidin-4-ylurea]	> 10	> 10	0.1 to 1	> 10
O=C(Nc1ccc(Br)cc1)Nc1ncnc2nn3ccccc3c12 [Example 11, N-(4-bromophenyl)-N′-pyrido[1′,2′:1,5]pyrazolo[3,4-d]pyrimidin-4-ylurea]	> 10	> 10	1 to 10	1 to 10
O=C(Nc1ccc(C(F)(F)F)cc1)Nc1ncnc2nn3ccccc3c12 [Example 12, N-pyrido[1′,2′:1,5]pyrazolo[3,4-d]pyrimidin-4-yl-N′-[4-(trifluoromethyl)phenyl]urea]	> 10	> 10	1 to 10	1 to 10
O=C(Nc1ccc(F)cc1)Nc1ncnc2nn3ccccc3c12 [Example 13, N-(4-fluorophenyl)-N′-pyrido[1′,2′:1,5]pyrazolo[3,4-d]pyrimidin-4-ylurea]	> 10	> 10	> 10	0.1 to 1
C(=NNc1ncnc2nn3ccccc3c12)c1c[nH]c2ccccc12 [Example 14, 1H-indole-3-carbaldehyde pyrido[1′,2′:1,5]pyrazolo[3,4-d]pyrimidin-4-ylhydrazone]	> 10	1 to 10	1 to 10	> 10
